Results as given in patent US5998426A, “9,10 disubstituted camptothecin derivatives with antitumor activity” (Pharmacia & Upjohn S.p.A., priority 1996, dated 1999).

Test system: L1210 cells (murine lymphocytic leukemia)
Assay: Cytotoxic activity in vitro on L1210 cells (50% inhibition of cellular growth) after 48 h continuous treatment
Assay type: cell-based
Conditions: Mus musculus, total cells counted with Coulter Counter, DMSO final concentration 0.5%, read-out: IC50 (concentration inhibiting 50% of cell growth)
Description: The IC50 was determined for each compound of formula (Ia), (Ib) and (Ic) from dose-response curves counting the total number of cells with a Coulter Counter (Kontron mod. ZM).
The tested compounds were dissolved in dimethylsulfoxide (DMSO) at a final concentration of 0.5%.

Row | SMILES | IC50 [ng/mL]
1 | CC[C@@]1(O)C(=O)OCc2c1cc1n(c2=O)Cc2cc3c(N)c(OS(=O)(=O)c4cccc5ccccc45)ccc3nc2-1 [Formula (Ia), 9-amino-10-(1-naphthylsulfonyloxy)-20(S)-camptothecin] | 2.2 ± 0.3
2 | CC[C@@]1(O)C(=O)OCc2c1cc1n(c2=O)Cc2cc3c(N)c(OS(=O)(=O)c4ccccc4)ccc3nc2-1 [Formula (Ib), 9-amino-10-phenylsulfonyloxy-20(S)-camptothecin] | 6.8 ± 0.4
3 | CCc1c2c(nc3ccc(OS(=O)(=O)c4ccc(C)cc4)c(N)c13)-c1cc3c(c(=O)n1C2)COC(=O)[C@]3(O)CC [Formula (Ic), 7-ethyl-9-amino-10-(p-toluenesulfonyloxy)-20(S)-camptothecin] | 4.6 ± 0.1
